Experimental data as given in patent publication US20130109721A1, “FAAH Inhibitors” (Ironwood Pharmaceuticals, Inc., priority 2009, published 2013).

Target: T1, FAAH (Rattus norvegicus, UniProt P97612)
T1 construct: For assay of FAAH activity in rat brain membrane (RBM) homogenates; tissue Charles River; host or cells: rat (CD strain) brain membrane homogenate
T1 sequence (P97612 1-579): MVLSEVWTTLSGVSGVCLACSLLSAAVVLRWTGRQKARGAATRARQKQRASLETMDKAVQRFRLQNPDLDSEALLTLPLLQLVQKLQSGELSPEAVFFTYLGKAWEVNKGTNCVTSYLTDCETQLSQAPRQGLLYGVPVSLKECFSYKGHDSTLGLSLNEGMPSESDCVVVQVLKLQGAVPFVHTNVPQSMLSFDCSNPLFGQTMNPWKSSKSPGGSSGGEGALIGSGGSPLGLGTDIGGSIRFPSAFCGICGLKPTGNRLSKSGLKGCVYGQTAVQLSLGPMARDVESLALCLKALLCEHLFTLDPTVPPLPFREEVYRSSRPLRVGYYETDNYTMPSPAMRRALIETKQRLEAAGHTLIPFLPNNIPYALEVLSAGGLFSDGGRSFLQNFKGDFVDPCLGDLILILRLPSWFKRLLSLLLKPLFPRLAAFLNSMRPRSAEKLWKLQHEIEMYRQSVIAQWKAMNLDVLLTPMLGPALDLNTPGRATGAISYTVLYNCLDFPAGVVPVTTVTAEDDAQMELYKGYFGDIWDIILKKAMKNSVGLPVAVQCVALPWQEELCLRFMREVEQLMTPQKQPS
Test: FAAH inhibition, rat brain membrane homogenate assay
Assay type: biochemical
Details: average; FAAH extracted from rat brain homogenate; read-out: Rat Brian Extract IC50
Experimental: Adult rats (Charles River CD strain, female, 200 g) were anaesthetized with isofluorane and rapidly decapitated. Each brain was quickly removed and chilled in tubes (3 brains per tube) on ice. About 25 mL of “homogenization buffer” (20 mM HEPES buffer, pH 7.0, with 1 mM MgCl2) was added to 15 to 20 g of brain. The brains were homogenized on ice for 1 minute using an Omni GLH homogenizer (Omni International, Marietta, Ga.). The homogenates were then transferred to three centrifuge tubes and centrifuged at 36,500 g for 20 minutes at 4° C. The supernatant was discarded and each pellet was re-suspended in 25 mL homogenization buffer. The re-suspended material was again centrifuged (36,500 g, 20 minutes at 4° C.). Pellets were combined by resuspension in 10 mL of homogenization buffer and incubated in a 37° C. water bath for 15 minutes. The tubes were then placed on ice for 5 minutes followed by centrifugation at 36,500 g for 20 minutes at 4° C. The supernatant was discarded and the membrane pellets were then re-suspended in 40 mL of “resuspension buffer” (50 mM Tris-HCl buffer, pH 7.4, containing 1 mM EDTA and 3 mM MgCl2). A Bradford Protein assay was performed to determine protein concentration. The protein was aliquotted into screw cap Cryo tubes each containing ˜400 μL, flash frozen in liquid nitrogen and stored at −80° C. until used for the assay. A similar protocol was used to obtain brain membrane homogenates from mice.
FAAH activity was assayed in the respective homogenates described herein (Rat brain, Mouse brain or Human brain) for certain exemplary substrate compounds using a modification of the method of Omeir et al. (1995 Life Sci 56:1999) and Fowler et al. (1997 J. Pharmacol Exp Ther 283:729). For assay of FAAH activity in rat brain membrane (RBM) homogenates, RBM homogenates (7 μg protein in 20 μL final volume of 10 mM Tris pH 6.5) were mixed with 180 μL of a mixture of the following: 2.0 μM unlabelled anandamide, 0.03 μCi radio labeled anandamide [ethanolamine 1-^3H] (40-60 Cis/mmol, product number ART-626, American Radiolabeled Chemicals, St. Louis, Mo.), 1 mg/mL Bovine Serum Albumin (fatty acid-free BSA, electrophoresis grade, Sigma, St. Louis, Mo.), 10 mM Tris-HCl (pH 6.5), and 1 mM EDTA in the presence and absence of test compounds (vehicle was DMSO at a final concentration of 1%) and incubated for 10 minutes at 37° C. Samples were placed on ice to terminate the reactions.
^3H-ethanolamine product and un-reacted ^3H-anandamide substrate were then separated either: (1) by using chloroform/methanol extraction or (2) by passing the reaction mixture through a glass fiber filter containing activated charcoal. Samples were extracted with chloroform/methanol by adding 0.4 mL of chloroform/methanol (1:1 v/v), vigorously mixing the samples, and separating the aqueous and organic phases by centrifugation. Radioactivity (corresponding to FAAH-catalyzed breakdown of ^3H-anandamide) found in aliquots (0.2 mL) of the aqueous phase was determined by liquid scintillation counting with quench correction. IC50 values were determined as described by Jonsson et al. (2001 Br. J. Pharmacol. 133:1263). Alternatively, reactions were purified using a modification of the solid-phase extraction method described by Wilson et al (2003 Anal. Biochem. 318:270). This method was modified as follows: after reactions were incubated at 37° C. for 10 minutes and chilled on ice, the reaction mixtures were acidified by adding 10 μL of sodium phosphate solution [0.5M (pH 2.0)]. Next, 90 μL aliquots of the acidified reaction mixtures were applied to activated charcoal (that had been previously washed with methanol as described by Wilson et al. (supra)) containing 80 μL of water on top of a glass fiber filter, centrifuged, and the radioactivity in the eluate was counted as described previously by Wilson et al. (supra). […]

IC50 | SMILES
4 nM | Cc1c(C(=O)C(=O)Nc2cccc(Cl)c2)c2c(n1Cc1ccc(Cl)cc1)CCCC2 [Compound I-16, 2-(1-(4-chlorobenzyl)-2-methyl-4,5,6,7-tetrahydro-1H-indol-3-yl)-N-(3-chlorophenyl)-2-oxoacetamide]
1440 nM | COc1cc(NC(=O)C(=O)c2c3c(n(Cc4ccc(Cl)cc4)c2C)CCCC3)ccn1 [Compound I-18, 2-(1-(4-chlorobenzyl)-2-methyl-4,5,6,7-tetrahydro-1H-indol-3-yl)-N-(2-methoxypyridin-4-yl)-2-oxoacetamide]
5 nM | COc1cc(NC(=O)C(=O)c2c(-c3ccccc3)c(C)n(Cc3ccc(Cl)cc3)c2C)ccn1 [Compound I-19, 2-(1-(4-chlorobenzyl)-2,5-dimethyl-4-phenyl-1H-pyrrol-3-yl)-N-(2-methoxypyridin-4-yl)-2-oxoacetamide]
1040 nM | Cc1c(C(=O)C(=O)Nc2cccc(Cl)c2)c(-c2ccccc2)c(C)n1Cc1ccc(Cl)cc1 [Compound I-20, 2-(1-(4-chlorobenzyl)-2,5-dimethyl-4-phenyl-1H-pyrrol-3-yl)-N-(3-chlorophenyl)-2-oxoacetamide]
1 nM | COc1cc(NC(=O)C(=O)c2cc(C)n(Cc3ccc(Cl)cc3Cl)c2C)ccn1 [Compound I-21, 2-(1-(2,4-dichlorobenzyl)-2,5-dimethyl-1H-pyrrol-3-yl)-N-(2-methoxypyridin-4-yl)-2-oxoacetamide]
1770 nM | COc1ccc(Cn2c(C)cc(C(=O)C(=O)Nc3ccnc(OC)c3)c2C)cc1 [Compound I-22, 2-(1-(4-methoxybenzyl)-2,5-dimethyl-1H-pyrrol-3-yl)-N-(2-methoxypyridin-4-yl)-2-oxoacetamide]
185 nM | COc1cc(NC(=O)C(=O)c2cc(C)n(Cc3ccc(Cl)cc3)c2-c2ccccc2)ccn1 [Compound I-23, 2-(1-(4-chlorobenzyl)-5-methyl-2-phenyl-1H-pyrrol-3-yl)-N-(2-methoxypyridin-4-yl)-2-oxoacetamide]
> 5000 nM | Cc1cc(C(=O)C(=O)Nc2cccc(Cl)c2)c(-c2ccccc2)n1Cc1ccc(Cl)cc1 [Compound I-24, 2-(1-(4-chlorobenzyl)-5-methyl-2-phenyl-1H-pyrrol-3-yl)-N-(3-chlorophenyl)-2-oxoacetamide]
28 nM | Cc1c(C(=O)C(=O)Nc2cccc(Cl)c2)cc(-c2ccccc2)n1Cc1ccc(Cl)cc1 [Compound I-25, 2-(1-(4-chlorobenzyl)-2-methyl-5-phenyl-1H-pyrrol-3-yl)-N-(3-chlorophenyl)-2-oxoacetamide]
> 5000 nM | Cc1c(C(=O)C(=O)Nc2ccncc2)cc(-c2ccccc2)n1Cc1ccc(Cl)cc1 [Compound I-26, 2-(1-(4-chlorobenzyl)-2-methyl-5-phenyl-1H-pyrrol-3-yl)-2-oxo-N-(pyridin-4-yl)acetamide]
